Experimental data from patent US20190298650A1, “FORMULATION AND COMPOSITION FOR PREVENTING AND/OR DISSOLVING BIOFILM ON THE SKIN OF A DOMESTIC ANIMAL” (Dechra Veterinary Products LLC, priority 2018, published 2019).
In brackets after ≈: the same amount, converted by molar mass.

What was measured:
[1] = test system: Pseudomonas spp isolates from clinical canine otitis cases; experiment: Biofilm prevention assay (MIC read visually, then crystal violet OD570); assay type: cell-based; details: 28 isolates, LBB, 24 h at 37° C., NAC alone
Text: One hundred Pseudomonas spp isolates from clinical canine otitis cases from the UK (96), Dubai (3) and Malta (1) were submitted to NationWide Laboratories Knutton (CAPL) for routine culture and susceptibility testing over a 12 month period. Four isolates were from two dogs with bilateral otitis.
The dilutions were made using a Broth (LBB).
Contents of the wells were discarded prior to washing three times in phosphate buffered saline (PBS) at pH 7.2. […] The contents were removed by micropipetting before plates rinsed thoroughly under running water. […] Plates were covered to prevent evaporation.

[2] = test system: Pseudomonas spp isolates from clinical canine otitis cases (biofilm); experiment: Biofilm breaking assay (crystal violet OD570 on a 24 h pre-formed biofilm); assay type: cell-based; details: only NAC 5 mg/mL, 14 isolates
Procedure: One hundred Pseudomonas spp isolates from clinical canine otitis cases from the UK (96), Dubai (3) and Malta (1) were submitted to NationWide Laboratories Knutton (CAPL) for routine culture and susceptibility testing over a 12 month period. Four isolates were from two dogs with bilateral otitis. […] Isolates were then stored frozen of beads (ProLab UK) at -20° C. […] Negative control wells, in triplicate, contained 180 μL of LBB and 20 μL of distilled, sterile water. Plates were then incubated for 24 hours at 37° C. Contents of the wells were discarded prior to washing three times in phosphate buffered saline (PBS) at pH 7.2. […] 100 μL of Luria-Bertani enrichment broth (LBB) and 100 μL of sterile, distilled water for negative control. […] For the biofilm breaking assay the following dilutions where tested. The dilutions were made using a Broth (LBB). […] Plates were then incubated for another 24 hours period. Contents of the wells were discarded prior to washing three times in phosphate buffered saline (PBS) at pH 7.2. […] The contents were removed by micropipetting before plates rinsed thoroughly under running water. […] Plates were covered to prevent evaporation.

MIC [1]: 50 mg/mL (≈ 306 mM)
SMILES: CC(=O)N[C@@H](CS)C(=O)O [NAC, (2R)-2-acetamido-3-sulfanylpropanoic acid]
optical density (OD570) Max. [2]: 1.40
optical density (OD570) Mean [2]: 0.38
optical density (OD570) Median [2]: 0.26
optical density (OD570) Min. [2]: −0.03
